In US7842802B2, “Vinorelbine derivatives” (priority 2003, dated 2010):
Read-outs that look alike come from different tables or passages of the source.

How the values were obtained:
MCF7 = assay: NCI 60-cell line growth inhibition assay, MCF7; type: cell-based, human; settings: Breast
Description: (§1) The following data in Table 4 summarize the growth inhibition properties of several compounds of the present invention against 60-human transformed cell lines.

A549/ATCC = assay: NCI 60-cell line growth inhibition assay, A549/ATCC; type: cell-based, human; settings: Non-Small Cell Lung
Description: as §1

M14 = assay: NCI 60-cell line growth inhibition assay, M14; type: cell-based, human; settings: Melanoma
Description: as §1

KM12 = assay: NCI 60-cell line growth inhibition assay, KM12; type: cell-based, human; settings: Colon
Description: as §1

SF-539 = assay: NCI 60-cell line growth inhibition assay, SF-539; type: cell-based, human; settings: CNS
Description: as §1

MALME-3M = assay: NCI 60-cell line growth inhibition assay, MALME-3M; type: cell-based, human; settings: Melanoma
Description: as §1

NCI-H460 = assay: NCI 60-cell line growth inhibition assay, NCI-H460; type: cell-based, human; settings: Non-Small Cell Lung
Description: as §1

UACC-257 = assay: NCI 60-cell line growth inhibition assay, UACC-257; type: cell-based, human; settings: Melanoma
Description: as §1

UACC-62 = assay: NCI 60-cell line growth inhibition assay, UACC-62; type: cell-based, human; settings: Melanoma
Description: as §1

RXF 393 = assay: NCI 60-cell line growth inhibition assay, RXF 393; type: cell-based, human; settings: Renal
Description: as §1

MDA-MB-231/ATCC = assay: NCI 60-cell line growth inhibition assay, MDA-MB-231/ATCC; type: cell-based, human; settings: Breast
Description: as §1

NCI/ADR-RES = assay: NCI 60-cell line growth inhibition assay, NCI/ADR-RES; type: cell-based, human; settings: Breast
Description: as §1

SF-295 = assay: NCI 60-cell line growth inhibition assay, SF-295; type: cell-based, human; settings: CNS
Description: as §1

U251 = assay: NCI 60-cell line growth inhibition assay, U251; type: cell-based, human
Description: as §1

HL-60(TB) = assay: NCI 60-cell line growth inhibition assay, HL-60(TB); type: cell-based, human; settings: Leukemia
Description: as §1

SF-268 = assay: NCI 60-cell line growth inhibition assay, SF-268; type: cell-based, human; settings: CNS
Description: as §1

SN12C = assay: NCI 60-cell line growth inhibition assay, SN12C; type: cell-based, human; settings: Renal
Description: as §1

NCI-H226 = assay: NCI 60-cell line growth inhibition assay, NCI-H226; type: cell-based, human; settings: Non-Small Cell Lung
Description: as §1

DU-145 = assay: NCI 60-cell line growth inhibition assay, DU-145; type: cell-based, human; settings: Prostate
Description: as §1

SK-MEL-2 = assay: NCI 60-cell line growth inhibition assay, SK-MEL-2; type: cell-based, human; settings: Melanoma
Description: as §1

NCI-H522 = assay: NCI 60-cell line growth inhibition assay, NCI-H522; type: cell-based, human; settings: Non-Small Cell Lung
Description: as §1

HCT-15 = assay: NCI 60-cell line growth inhibition assay, HCT-15; type: cell-based, human; settings: Colon
Description: as §1

HS 578T = assay: NCI 60-cell line growth inhibition assay, HS 578T; type: cell-based, human; settings: Breast
Description: as §1

SW-620 = assay: NCI 60-cell line growth inhibition assay, SW-620; type: cell-based, human; settings: Colon
Description: as §1

SR = assay: NCI 60-cell line growth inhibition assay, SR; type: cell-based, human; settings: Leukemia
Description: as §1

[1] = test system: MCF-7 human breast carcinoma line; assay: MCF-7 GI50 determination (crystal violet); type: cell-based; settings: MCF-7, 4 days of treatment, crystal violet, read-out: MCF-7 Cells GI50
Method: Growth inhibition (GI50) values were measured on the human breast carcinoma line, MCF-7. MCF-7 cells were plated at 2×10^4 cells/well in 96 well plates and grown for 24 hours in drug free media. On day 2, test compounds were added to the plates at 10-fold dilutions. Four days later, cells were fixed by the addition of glutaraldehyde to 0.75%. After 30 min, the fixed cells were extensively rinsed with distilled water and dried at room temperature for one hour. The cells were then stained with a 0.2% crystal violet solution for one hour at room temperature. Unbound stain was removed by ten rinses with tap water and plates were allowed to air dry for 30 min. The crystal violet was then solubilized by the addition of 10% acetic acid for 15 min and quantified by measuring absorbance at 570 nm on a Molecular Devices microplate reader. Growth inhibition was calculated according to the following equation: GI=[…], where the optical density (OD) of the test well after 4 days of treatment was T, the OD of the wells in the control plate on day 0 was T0. Plots of percent growth inhibition versus inhibitor concentration were used to determine the GI50.

HOP-92 = assay: NCI 60-cell line growth inhibition assay, HOP-92; type: cell-based, human; settings: Non-Small Cell Lung
Description: as §1

[2] = test system: HeLa S-3 human cervical carcinoma cell line; assay: HeLa GI50 determination (SRB); type: cell-based; settings: HeLa S-3, 2 days of treatment, SRB, read-out: HeLa Cells GI50
Method: Growth inhibition (GI50) values were measured on the human cervical carcinoma cell line, HeLa S-3, which were selected for growth on plastic. The HeLa cell assay was based on the description of Skehan et al., J. Natl. Cancer Inst., 82:1107-12 (1990), which is hereby incorporated by reference in its entirety. HeLa cells were plated at 2×10^4 cells/well in 96 well plates. One day later, a control plate was fixed by the addition of TCA to 5%. After five rinses with tap water, the plate was air-dried and stored at 4° C. Test compounds were added to the remaining plates at 10-fold dilutions. Two days later, all plates were fixed as described above. Cells were then stained by the addition of 100 μL per well of 0.4% sulforhodamine B (SRB) in 1% acetic acid for 30 min at 4° C. Wells were then quickly rinsed 5× with 1% acetic acid and allowed to air dry. The SRB was then solubilized by the addition of 100 μL per well of unbuffered 10 mM Tris base. Dye was quantified by measuring absorbance at 490 nm on a Molecular Devices microplate reader. Growth inhibition was calculated according to the following equation: GI=100×(T−T0)/(C−T0), where the optical density (OD) of the test well after 2 days of treatment was T, the OD of the wells in the control plate on day 0 was T0 and C was the OD of untreated wells. Plots of percent growth inhibition versus inhibitor concentration were used to determine the GI50.

OVCAR-8 = assay: NCI 60-cell line growth inhibition assay, OVCAR-8; type: cell-based, human; settings: Ovarian
Description: as §1

HT29 = assay: NCI 60-cell line growth inhibition assay, HT29; type: cell-based, human
Description: as §1

K-562 = assay: NCI 60-cell line growth inhibition assay, K-562; type: cell-based, human
Description: as §1

MDA-MB-435 = assay: NCI 60-cell line growth inhibition assay, MDA-MB-435; type: cell-based, human; settings: Breast
Description: as §1

ACHN = assay: NCI 60-cell line growth inhibition assay, ACHN; type: cell-based, human; settings: Renal
Description: as §1

PC-3 = assay: NCI 60-cell line growth inhibition assay, PC-3; type: cell-based, human; settings: Prostate
Description: as §1

## 11′-bromovinorelbine [Example 1]
MCF7
  GI50: < 10 nM
A549/ATCC
  GI50: < 10 nM
M14
  GI50: < 0.01 µM
KM12
  GI50: < 10 nM
SF-539
  GI50: < 10 nM
MALME-3M
  GI50: 53.6 nM
NCI-H460
  GI50: < 10 nM
UACC-257
  GI50: 5.73 µM
UACC-62
  GI50: < 10 nM
RXF 393
  GI50: 10.3 µM
MDA-MB-231/ATCC
  GI50: < 10 nM
NCI/ADR-RES
  GI50: 152 nM
SF-295
  GI50: < 10 nM
U251; CNS
  GI50: < 10 nM
HL-60(TB)
  GI50: < 10 nM
SF-268
  GI50: < 10 nM
SN12C
  GI50: < 10 nM
NCI-H226
  GI50: < 10 nM
DU-145
  GI50: < 10 nM
SK-MEL-2
  GI50: < 10 nM
NCI-H522
  GI50: < 10 nM
HCT-15
  GI50: < 10 nM
HS 578T
  GI50: 679 nM
SW-620
  GI50: < 10 nM
SR
  GI50: > 100000 nM
[1]
  GI50: 3 nM
HOP-92
  GI50: 1240 nM
[2]
  GI50: 5 nM
OVCAR-8
  GI50: < 10 nM
HT29; Colon
  GI50: < 10 nM
K-562; Leukemia
  GI50: < 10 nM
MDA-MB-435
  GI50: < 10 nM
ACHN
  GI50: 3230 nM
PC-3
  GI50: < 10 nM

## CCC1=C[C@H]2CN(C1)Cc1c([nH]c3ccc(I)cc13)[C@@](C(=O)OC)(c1cc3c(cc1OC)N(C)[C@H]1[C@@](O)(C(=O)OC)[C@H](OC(C)=O)C4C(CC)=CCN5CC[C@]31[C@H]45)C2 (some centres unmarked) [Example 2, 11′-iodovinorelbine]
MCF7; Homo sapiens
  GI50: 11.3 nM
A549/ATCC; Homo sapiens
  GI50: 58.6 nM
M14; Homo sapiens
  GI50: > 100 µM
KM12; Homo sapiens
  GI50: 92.7 nM
SF-539; Homo sapiens
  GI50: 37.9 nM
MALME-3M; Homo sapiens
  GI50: 65 nM
NCI-H460; Homo sapiens
  GI50: 43.2 nM
UACC-257; Homo sapiens
  GI50: 3.43 µM
UACC-62; Homo sapiens
  GI50: 25.6 nM
RXF 393; Homo sapiens
  GI50: 0.0605 µM
MDA-MB-231/ATCC; Homo sapiens
  GI50: 77.2 nM
NCI/ADR-RES; Homo sapiens
  GI50: 5280 nM
SF-295; Homo sapiens
  GI50: 27 nM
U251; Homo sapiens, U-251, CNS
  GI50: 42.3 nM
HL-60(TB); Homo sapiens
  GI50: 71 nM
SF-268; Homo sapiens
  GI50: 78.8 nM
SN12C; Homo sapiens
  GI50: 70.8 nM
NCI-H226; Homo sapiens
  GI50: 83.3 nM
DU-145; Homo sapiens
  GI50: 25.7 nM
SK-MEL-2; Homo sapiens
  GI50: 1400 nM
NCI-H522; Homo sapiens
  GI50: < 10 nM
HCT-15; Homo sapiens
  GI50: 1070 nM
HS 578T; Homo sapiens
  GI50: 19.2 nM
SW-620; Homo sapiens
  GI50: 37.8 nM
SR; Homo sapiens
  GI50: 26.1 nM
[1]; Homo sapiens, MCF7, 96 h
  GI50: 7 nM
HOP-92; Homo sapiens
  GI50: 2250 nM
[2]; Homo sapiens, HeLa S3, 48 h
  GI50: 25 nM
OVCAR-8; Homo sapiens
  GI50: 51.7 nM
HT29; Homo sapiens, HT-29, Colon
  GI50: 10.3 nM
K-562; Homo sapiens, K562, Leukemia
  GI50: 12.4 nM
MDA-MB-435; Homo sapiens
  GI50: 1370 nM
ACHN; Homo sapiens
  GI50: 1430 nM
PC-3; Homo sapiens
  GI50: 57.3 nM
